# Data published in paper PMC9287416, “Externalized phosphatidylinositides on apoptotic cells are eat-me signals recognized by CD14” (Cell Death and Differentiation, 2022).
# Like-named read-outs stand apart in the source and are kept apart here.
# Biological target: T1, CD14 (Homo sapiens, UniProt P08571)
# T1 construct: full-length human CD14 expressed in HEK293T cells, recombinant; His-tagged protein used in flow cytometry
# T1 sequence (P08571 20-345): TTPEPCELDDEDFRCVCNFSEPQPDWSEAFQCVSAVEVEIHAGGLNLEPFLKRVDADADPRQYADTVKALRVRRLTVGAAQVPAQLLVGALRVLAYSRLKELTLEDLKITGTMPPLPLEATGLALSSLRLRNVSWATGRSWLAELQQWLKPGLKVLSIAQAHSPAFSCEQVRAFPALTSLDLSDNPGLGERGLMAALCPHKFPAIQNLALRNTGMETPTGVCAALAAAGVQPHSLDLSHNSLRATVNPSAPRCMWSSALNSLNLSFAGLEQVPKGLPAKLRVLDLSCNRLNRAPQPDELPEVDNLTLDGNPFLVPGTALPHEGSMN
# Assay: isothermal titration calorimetry
# Format: binding
Kd,"Kd (PI(3,4,5)P3 in liposomes)",Compound
6.2 ± 1.2 µM,,O=P(O)(O)O[C@H]1[C@H](OP(=O)(O)O)[C@@H](OP(=O)(O)O)[C@H](OP(=O)(O)O)[C@@H](OP(=O)(O)O)[C@H]1OP(=O)(O)O [IP6]
,5.6 ± 0.6 µM,"PI(3,4,5)P3"
